Test results reported in patent US10301272B2, “Carboxamide or sulfonamide substituted thiazoles and related derivatives as modulators for the orphan nuclear receptor ROR[γ]” (Phenex Pharmaceuticals AG, priority 2012, dated 2019).
Like-named read-outs stand apart in the source and are kept apart here.

Assays:
RORγ = RORγ (Homo sapiens, UniProt P51449); assay: RORγ Gal4 Reporter Gene Assay; format: cell-based; conditions: for IC50: 293T cells
Method in brief: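 Cells at 5×10^5/well were transfected with RORγ fragments fused to the GAL4 DNA-binding domain (CMV promoter), a 5×GAL4-site firefly luciferase reporter and CMV-Renilla luciferase for normalization. About 4 h later serum-free MEM and compound were added (vehicle ≤0.1%). Cultures at 37 °C, 5% CO2; at least triplicates.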

[1] = target: RORγ ligand binding domain (LBD) (Homo sapiens (Human), UniProt P51449); assay: TR-FRET Activity Assay (ligand sensing assay, LANCE); conditions: for pIC50 (FRET): TR-FRET, interaction of RORγ-LBD with coactivator peptide
Sequence of RORγ ligand binding domain (LBD) (P51449 269-508): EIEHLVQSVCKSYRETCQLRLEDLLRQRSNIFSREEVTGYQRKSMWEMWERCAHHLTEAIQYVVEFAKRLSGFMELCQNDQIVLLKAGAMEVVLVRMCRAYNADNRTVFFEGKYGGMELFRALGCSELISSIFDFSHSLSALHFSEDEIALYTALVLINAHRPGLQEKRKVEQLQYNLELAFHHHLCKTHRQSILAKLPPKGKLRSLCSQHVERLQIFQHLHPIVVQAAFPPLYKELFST

[2] = firefly (FF) luciferase, read-out: pIC50 (FF) (converted)
[3] = renilla normalised (RENnorm) luciferase, read-out: pIC50 (REN) (converted)

Sequence of RORγ (P51449 whole entry, looked up, the tested form may be a part): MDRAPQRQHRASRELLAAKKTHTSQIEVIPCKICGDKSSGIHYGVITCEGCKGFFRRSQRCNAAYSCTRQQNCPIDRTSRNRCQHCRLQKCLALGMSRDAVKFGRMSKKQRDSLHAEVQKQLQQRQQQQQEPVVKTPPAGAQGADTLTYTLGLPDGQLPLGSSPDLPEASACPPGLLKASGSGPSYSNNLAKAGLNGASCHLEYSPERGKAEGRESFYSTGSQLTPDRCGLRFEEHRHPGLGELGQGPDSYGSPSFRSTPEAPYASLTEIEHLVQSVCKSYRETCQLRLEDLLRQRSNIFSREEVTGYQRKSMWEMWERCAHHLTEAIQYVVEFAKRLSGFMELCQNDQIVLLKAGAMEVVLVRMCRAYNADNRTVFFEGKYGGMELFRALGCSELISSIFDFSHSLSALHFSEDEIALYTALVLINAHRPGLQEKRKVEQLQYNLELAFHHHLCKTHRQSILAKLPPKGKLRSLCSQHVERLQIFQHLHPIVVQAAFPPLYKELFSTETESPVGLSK

Compound | pIC50 (FF) (RORγ) | pIC50 (REN) (RORγ) | pIC50 (FRET) [1] | IC50 (RORγ; [2]) | IC50 (RORγ; [3]) | IC50 [1]
CC(C)(C)NS(=O)(=O)c1ccc(-c2sc(C(=O)NC3CCS(=O)(=O)CC3)nc2CC2CCCCC2)c(Cl)c1Cl [6/43] | 7.0/8.7/8.7 | 7.0/8.7/8.7 | 7.0/8.7/8.7 |  |  | 
CC(C)(C)NS(=O)(=O)c1ccc(-c2sc(C(=O)N3CC4CC(C3)O4)nc2CC2CCCCC2)c(Cl)c1Cl [6/44] | 7.4/7.8/8.0 | 7.4/7.8/8.0 | 7.4/7.8/8.0 |  |  | 
CC(C)(C)NS(=O)(=O)c1ccc(-c2sc(C(=O)N3CC4(CCS(=O)(=O)CC4)C3)nc2CC2CCCCC2)c(Cl)c1Cl [6/45] | 7.1/7.9/8.0 | 7.1/7.9/8.0 | 7.1/7.9/8.0 |  |  | 
CC(C)(C)NS(=O)(=O)c1ccc(-c2sc(C(=O)NC3CCC(C(=O)O)C3)nc2CC2CCCCC2)c2ccccc12 (stereo not drawn) [6/51] | 6.3/8.4/8.4 | 6.3/8.4/8.4 | 6.3/8.4/8.4 |  |  | 
CN1CCN(C(=O)c2nc(CC3CCCCC3)c(-c3ccc(S(=O)(=O)NC(C)(C)C)c4ccccc34)s2)CC1 [6/53] | 6.6/7.1/7.4 | 6.6/7.1/7.4 | 6.6/7.1/7.4 |  |  | 
CC(C)(C)NS(=O)(=O)c1ccc(-c2sc(C(=O)N[C@H]3C[C@H](C(=O)O)C3)nc2CC2CCCCC2)cc1C(C)(C)C [7/2] | 6.2/7.5/7.6 | 6.2/7.5/7.6 | 6.2/7.5/7.6 |  |  | 
CC(C)(C)c1cc(-c2sc(C(=O)N[C@H]3C[C@H](C(=O)O)C3)nc2CC2CCCCC2)cc(C(F)F)c1 [7/5] | 6.3/7.0/7.1 | 6.3/7.0/7.1 | 6.3/7.0/7.1 |  |  | 
CC1(c2cc(C(=O)NCC(F)(F)F)cc(-c3sc(C(=O)N[C@H]4C[C@H](C(=O)O)C4)nc3CC3CCCCC3)c2)CC1 [7/6] | 6.2/7.1/7.2 | 6.2/7.1/7.2 | 6.2/7.1/7.2 |  |  | 
CC(C)COc1cc(-c2sc(C(=O)N[C@H]3C[C@H](C(=O)O)C3)nc2CC2CCCCC2)cc(C(C)(C)C)n1 [7/11] | 5.9/7.4/7.4 | 5.9/7.4/7.4 | 5.9/7.4/7.4 |  |  | 
CC(C)(C)NS(=O)(=O)c1ccc(-c2sc(C(=O)N[C@H]3C[C@H](C(=O)O)C3)nc2CC2CCCCC2)c(Cl)c1C(F)(F)F [7/12] | 6.2/8.0/8.2 | 6.2/8.0/8.2 | 6.2/8.0/8.2 |  |  | 
Cc1c(S(=O)(=O)NC(C)(C)C)ccc(-c2sc(C(=O)N[C@H]3C[C@H](C(=O)O)C3)nc2CC2CCCCC2)c1C(F)(F)F [7/14] | 5.8/8.5/8.7 | 5.8/8.5/8.7 | 5.8/8.5/8.7 |  |  | 
CC(C)(C)NS(=O)(=O)c1ccc(-c2sc(C(=O)N[C@H]3C[C@H](C(=O)O)C3)nc2CC2CCCCC2)c(F)c1C(F)F [7/15] | 6.7/8.7/8.5 | 6.7/8.7/8.5 | 6.7/8.7/8.5 |  |  | 
CC(C)(C)NS(=O)(=O)c1ccc(-c2sc(C(=O)N[C@H]3C[C@H](C(=O)O)C3)nc2CC2CCCCC2)c(C(F)F)c1Cl [7/16] | 6.5/8.5/8.5 | 6.5/8.5/8.5 | 6.5/8.5/8.5 |  |  | 
CC(C)(C)NS(=O)(=O)c1ccc(-c2sc(C(=O)N[C@H]3C[C@H](C(=O)O)C3)nc2CC2CCCCC2)cc1C(C)(C)O [7/17] | 6.5/8.0/8.0 | 6.5/8.0/8.0 | 6.5/8.0/8.0 |  |  | 
CC(C)(C)c1cc(-c2sc(C(=O)N[C@H]3C[C@H](C(=O)O)C3)nc2CC2CCCCC2)cc(C(C)(F)F)c1 [7/18] | 6.4/7.4/7.4 | 6.4/7.4/7.4 | 6.4/7.4/7.4 |  |  | 
COc1ccc(-c2sc(C(=O)N[C@H]3C[C@H](C(=O)O)C3)nc2CC2CCCCC2)c2ccccc12 [7/20] |  |  |  | 251 nM | 251 nM | > 20000 nM
O=C(N[C@H]1C[C@H](C(=O)O)C1)c1nc(CC2CCCCC2)c(-c2ccc(OC(F)(F)F)c3ccccc23)s1 [7/21] |  |  |  | 126 nM | 126 nM | 2000 nM
O=C(N[C@H]1C[C@H](C(=O)O)C1)c1nc(CC2CCCCC2)c(-c2ccc(OCC(F)(F)F)c3ccccc23)s1 [7/22] |  |  |  | 316 nM | 631 nM | > 20000 nM

Compound | pIC50 (FF) (RORγ) | pIC50 (REN) (RORγ) | pIC50 (FRET) [1] | IC50 (RORγ; [2]) | IC50 (RORγ; [3]) | IC50 [1]
CC(C)(O)c1ccc(-c2sc(C(=O)NC3CCS(=O)(=O)CC3)nc2CC2CCCCC2)c2ccccc12 [7/23] | <4.7/6.8/6.7 | <4.7/6.8/6.7 |  |  |  | > 20000 nM
CC(C)(C)NC(=O)c1ccc(-c2sc(C(=O)NC3CCS(=O)(=O)CC3)nc2CC2CCCCC2)c2ccccc12 [7/25] | 6.2/6.6/6.5 | 6.2/6.6/6.5 | 6.2/6.6/6.5 |  |  | 
CC1(C)COCCN1Cc1ccc(-c2sc(C(=O)NC3CCS(=O)(=O)CC3)nc2CC2CCCCC2)c2ccccc12 [7/26] | 6.8/7.7/7.9 | 6.8/7.7/7.9 | 6.8/7.7/7.9 |  |  | 
O=C(NC1CCS(=O)(=O)CC1)c1nc(CC2CCCCC2)c(-c2ccc(N3CCOCC3)c3ccccc23)s1 [7/27] | 6.5/6.9/6.9 | 6.5/6.9/6.9 | 6.5 |  |  | 
CC(C)(O)CNC(=O)c1nc(CC2CCCCC2)c(-c2ccc(S(=O)(=O)NC3(C(N)=O)CC3)c3ccccc23)s1 [8/3] | 6.4/7.5/7.6 | 6.4/7.5/7.6 | 6.4/7.5/7.6 |  |  | 
CC(C)(O)CNC(=O)c1nc(CC2CCCCC2)c(-c2ccc(S(=O)(=O)NC3(C)COC3)c3ccccc23)s1 [8/5] | 6.4/8.5/8.7 | 6.4/8.5/8.7 | 6.4/8.5/8.7 |  |  | 
C[C@H](NC(=O)c1cc(-c2sc(C(=O)NCC(C)(C)O)nc2CC2CCCCC2)cc(C2(C)CC2)c1)C(F)(F)F [8/6] | 7.0/8.2/8.3 | 7.0/8.2/8.3 | 7.0/8.2/8.3 |  |  | 
CC(C)(C)c1cc(-c2sc(C(=O)N[C@H]3C[C@H](C(=O)O)C3)nc2CC2CCCCC2)cc(C(C)(C)C)n1 [8/8] |  |  |  | 63.1 nM | 79.4 nM | 501 nM
CC(C)(C)c1cc(-c2sc(C(=O)N[C@H]3C[C@H](C(=O)O)C3)nc2CC2CCCCC2)cc(C(C)(C)C)[n+]1[O-] [8/9] |  |  |  | 126 nM | 126 nM | 794 nM
CC(C)(C)c1cc(-c2sc(C(=O)N[C@H]3C[C@H](C(=O)O)C3)nc2CC2CCCCC2)cc(C(C)(C)O)n1 [8/10] |  |  |  | 158 nM | 158 nM | 631 nM
CC(C)(C)NS(=O)(=O)c1ccc(-c2sc(C(=O)N[C@H]3C[C@H](C(=O)O)C3)nc2CC2CCCCC2)cc1C(F)(F)F [9/2] | 6.9/8.0/8.0 | 6.9/8.0/8.0 | 6.9/8.0/8.0 |  |  | 
CC(C)(C)NS(=O)(=O)c1ccc(-c2sc(C(=O)NCC(C)(C)C(=O)O)nc2CC2CCCCC2)cc1C(F)(F)F [9/3] | 6.4/7.2/7.4 | 6.4/7.2/7.4 | 6.4/7.2/7.4 |  |  | 
CC(C)(O)c1cc(-c2sc(C(=O)N[C@H]3C[C@H](C(=O)O)C3)nc2CC2CCCCC2)cc(C2(C)CC2)c1 [9/4] | 6.5/7.1/7.1 | 6.5/7.1/7.1 | 6.5/7.1/7.1 |  |  | 
COC(C)(C)c1cc(-c2sc(C(=O)N[C@H]3C[C@H](C(=O)O)C3)nc2CC2CCCCC2)cc(C2(C)CC2)c1 [9/5] | 6.7/7.8/7.9 | 6.7/7.8/7.9 | 6.7/7.8/7.9 |  |  | 
CC(C)(C)NC(=O)c1cc(-c2sc(C(=O)N[C@H]3C[C@H](C(=O)O)C3)nc2CC2CCCCC2)cc(C(C)(C)C)c1 [9/7] | 6.2/7.4/7.5 | 6.2/7.4/7.5 | 6.2/7.4/7.5 |  |  | 
CC1(c2cc(-c3sc(C(=O)N[C@H]4C[C@H](C(=O)O)C4)nc3CC3CCCCC3)cc(C(F)(F)F)c2)CC1 [9/8] | 6.5/7.1/7.1 | 6.5/7.1/7.1 | 6.5/7.1/7.1 |  |  | 
CC1(c2cc(Cl)cc(-c3sc(C(=O)N[C@H]4C[C@H](C(=O)O)C4)nc3CC3CCCCC3)c2)CC1 [9/9] | 5.4/6.9/7.0 | 5.4/6.9/7.0 | 5.4/6.9/7.0 |  |  | 
CC(C)(O)c1cc(-c2sc(C(=O)N[C@H]3C[C@@H](C(=O)O)C3)nc2CC2CCCCC2)cc(C2(C)CC2)c1 [9/10] | 6.3/7.2/7.2 | 6.3/7.2/7.2 | 6.3/7.2/7.2 |  |  | 
